# Results taken from the supplement of paper PMC10307832.
# Key:
# Assay in all cases: relative viability (nuclei count vs DMSO), 5 days (fraction); higher = more cells survive
# Decitabine + Crizotinib = compound: Nc1ncn([C@H]2C[C@H](O)[C@@H](CO)O2)c(=O)n1 [Decitabine] + C[C@@H](Oc1cc(-c2cnn(C3CCNCC3)c2)cnc1N)c1c(Cl)ccc(F)c1Cl [Crizotinib] (partner 1 µM)
# Method in brief: (§1)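 After 5 days of treatment, lung cancer cells in 1536-well plates were fixed and stained in a single step (final 0.05% Triton X-100, 1% formaldehyde, 1 ug/ml Hoechst) and their nuclei counted on 4× images. Treatment had been applied by pin tool the day after seeding as one drug alone or as a fixed anchor-drug dose with five library-drug doses (not always all listed) in √10 steps. Relative viability is the nuclei count of treated wells divided by that of vehicle wells, and values are medians of duplicate plates.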
# Cediranib + Decitabine = compound: COc1cc2c(Oc3ccc4[nH]c(C)cc4c3F)ncnc2cc1OCCCN1CCCC1 [Cediranib] + Nc1ncn([C@H]2C[C@H](O)[C@@H](CO)O2)c(=O)n1 [Decitabine] (partner 2 µM)
# Method in brief: as §1
# [1] = compound: O=C(C[C@H]1NCCC[C@@H]1O)Cn1cnc2cc(Br)c(Cl)cc2c1=O (racemic) [Halofuginone] + Nc1ncn([C@H]2C[C@H](O)[C@@H](CO)O2)c(=O)n1 [Decitabine] (partner 2 µM)
# Method in brief: as §1
# Halofuginone + Lapatinib = compound: O=C(C[C@H]1NCCC[C@@H]1O)Cn1cnc2cc(Br)c(Cl)cc2c1=O (racemic) [Halofuginone] + CS(=O)(=O)CCNCc1ccc(-c2ccc3ncnc(Nc4ccc(OCc5cccc(F)c5)c(Cl)c4)c3c2)o1 [Lapatinib] (partner 2 µM)
# Method in brief: as §1
cell line,measurement,setting,value
UMC-11,relative viability,Decitabine + Crizotinib; first compound 0.04 µM,0.483
same,relative viability,Decitabine + Crizotinib; first compound 0.1265 µM,0.451
same,relative viability,Decitabine + Crizotinib; first compound 0.4 µM,0.398
same,relative viability,Decitabine + Crizotinib; first compound 1.265 µM,0.209
same,relative viability,Decitabine + Crizotinib; first compound 4 µM,0.168
same,relative viability,Cediranib + Decitabine; first compound 0.04 µM,0.617
same,relative viability,Cediranib + Decitabine; first compound 0.1265 µM,0.528
same,relative viability,Cediranib + Decitabine; first compound 0.4 µM,0.557
same,relative viability,Cediranib + Decitabine; first compound 1.265 µM,0.555
same,relative viability,Cediranib + Decitabine; first compound 4 µM,0.633
same,relative viability,[1]; first compound 0.001 µM,0.646
same,relative viability,[1]; first compound 0.003162 µM,0.848
same,relative viability,[1]; first compound 0.01 µM,0.59
same,relative viability,[1]; first compound 0.03162 µM,0.604
same,relative viability,[1]; first compound 0.1 µM,0.426
same,relative viability,Halofuginone + Lapatinib; first compound 0.001 µM,1.02
same,relative viability,Halofuginone + Lapatinib; first compound 0.003162 µM,0.997
same,relative viability,Halofuginone + Lapatinib; first compound 0.01 µM,0.889
same,relative viability,Halofuginone + Lapatinib; first compound 0.03162 µM,0.924
same,relative viability,Halofuginone + Lapatinib; first compound 0.1 µM,0.7
